Experimental data: patent publication US12617773B2, “Azetidin-3-ylmethanol derivatives as CCR6 receptor modulators” (Idorsia Pharmaceuticals Ltd, priority 2020, dated 2026)

Molecular target: T1, human CCR6 (Homo sapiens, UniProt P51684)
T1 construct: expressed in transfected cells; host or cells: HEK-293
T1 sequence (P51684 1-374): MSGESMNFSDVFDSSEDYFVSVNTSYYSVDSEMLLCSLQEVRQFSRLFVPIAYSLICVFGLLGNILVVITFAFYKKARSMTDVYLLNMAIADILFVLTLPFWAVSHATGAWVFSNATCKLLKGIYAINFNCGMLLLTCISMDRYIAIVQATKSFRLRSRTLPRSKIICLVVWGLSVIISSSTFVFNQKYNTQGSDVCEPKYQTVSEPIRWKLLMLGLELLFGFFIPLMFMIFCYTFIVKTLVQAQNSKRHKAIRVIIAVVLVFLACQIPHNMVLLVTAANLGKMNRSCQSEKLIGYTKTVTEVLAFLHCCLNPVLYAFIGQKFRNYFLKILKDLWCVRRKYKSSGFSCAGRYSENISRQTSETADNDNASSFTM
Assay: FLIPR assay (inhibition of CCL20-induced calcium signal)
Assay type: cell-based
Details: HEK-293 cells expressing human CCR6; mean values where determined several times; read-out: FLIPR IC50
Procedure, shortened: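 Dye-loaded HEK-293 cells expressing human CCR6 were preincubated with compound for 30 min at room temperature in the dark, then challenged with 10 nM CCL20 (final). Fluorescence was tracked on FLIPR, and baseline-subtracted peak emission over base after agonist addition gave inhibition dose-response curves for IC50.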

Compound	IC50 [nM]
CC(C)c1ccc([C@](O)(c2cncc(-c3nc(N4CCOCC4)no3)c2)C2(C)CN(C)C2)cc1 [Example 94, (R)-(1,3-Dimethyl-azetidin-3-yl)-(4-isopropyl-phenyl)-[5-(3-morpholin-4-yl-[1,2,4]oxadiazol-5-yl)-pyridin-3-yl]-methanol]	71.1
COC1(c2noc(-c3cncc([C@@](O)(c4ccc(C5CC5)cc4)C4(C)CN(C)C4)c3)n2)CCOCC1 [Example 95, (R)-(4-Cyclopropyl-phenyl)-(1,3-dimethyl-azetidin-3-yl)-{5-[3-(4-methoxy-tetrahydro-pyran-4-yl)-[1,2,4]oxadiazol-5-yl]-pyridin-3-yl}-methanol]	196
CN1CC(C)([C@](O)(c2ccc(C3CC3)cc2)c2cncc(-c3nc(C45CC(CO)(C4)C5)no3)c2)C1 [Example 96]	130
CC(C)c1ccc([C@](O)(c2cncc(-c3nc(C45CC(CO)(C4)C5)no3)c2)C2(C)CN(C)C2)cc1 [Example 97]	71.3
CC(C)c1ccc([C@](O)(c2cncc(-c3nc(C(C)(C)CO)no3)c2)C2(C)CN(C)C2)cc1 [Example 98]	60
CC(C)c1ccc([C@](O)(c2cncc(-c3nc(C(C)(C)O)no3)c2)C2(C)CN(C)C2)cc1 [Example 99]	111
COC(C)(C)c1noc(-c2cncc([C@@](O)(c3ccc(C(C)C)cc3)C3(C)CN(C)C3)c2)n1 [Example 100]	69.9
COC1(c2noc(-c3cncc([C@@](O)(c4ccc(C(C)C)cc4)C4(C)CN(C)C4)c3)n2)CCC1 [Example 101]	41.8
CC(C)c1ccc([C@](O)(c2cncc(-c3nc(CC(C)(C)O)no3)c2)C2(C)CN(C)C2)cc1 [Example 102]	103
CC(C)c1ccc([C@](O)(c2cncc(-c3noc(CS(C)(=O)=O)n3)c2)C2(C)CN(C)C2)cc1 [Example 103, (R)-(1,3-Dimethyl-azetidin-3-yl)-(4-isopropyl-phenyl)-[5-(5-methanesulfonylmethyl-[1,2,4]oxadiazol-3-yl)-pyridin-3-yl]-methanol]	110
COCCc1nc(-c2cncc([C@@](O)(c3ccc(C(C)C)cc3)C3(C)CN(C)C3)c2)no1 [Example 104]	42.2
COCc1nc(-c2cncc([C@@](O)(c3ccc(C(C)C)cc3)C3(C)CN(C)C3)c2)no1 [Example 105]	43.4
CC(C)c1ccc([C@](O)(c2cncc(-c3noc(C4CCOC4)n3)c2)C2(C)CN(C)C2)cc1 (stereo partly drawn) [Example 106]	46.7
CC(C)c1ccc([C@](O)(c2cncc(-c3noc(C4CCOCC4)n3)c2)C2(C)CN(C)C2)cc1 [Example 107]	54.3
CC(C)c1ccc([C@](O)(c2cncc(-c3noc(C4(O)CCCCC4)n3)c2)C2(C)CN(C)C2)cc1 [Example 108]	21
CC(C)c1ccc([C@](O)(c2cncc(-c3noc(COC(C)(C)C)n3)c2)C2(C)CN(C)C2)cc1 [Example 109]	21.2
CC(C)c1ccc([C@](O)(c2cncc(-c3noc(CC4CCOCC4)n3)c2)C2(C)CN(C)C2)cc1 [Example 110]	39.1
CC(C)c1ccc([C@](O)(c2cncc(-c3noc(C4CCC(O)CC4)n3)c2)C2(C)CN(C)C2)cc1 (stereo partly drawn) [Example 111]	43
CC(C)c1ccc([C@](O)(c2cncc(-c3noc(CC4(O)CCCCC4)n3)c2)C2(C)CN(C)C2)cc1 [Example 112]	38.5
COC1(c2nc(-c3cncc([C@@](O)(c4ccc(C(C)C)cc4)C4(C)CN(C)C4)c3)no2)CCC1 [Example 113]	29.8
CC(C)c1ccc([C@](O)(c2cncc(-c3noc(C4CC45CCOCC5)n3)c2)C2(C)CN(C)C2)cc1 (stereo partly drawn) [Example 114]	38
CC(C)c1ccc([C@](O)(c2cncc(-c3noc(C4CCCOC4)n3)c2)C2(C)CN(C)C2)cc1 (stereo partly drawn) [Example 115]	41
CC(C)c1ccc([C@](O)(c2cncc(-c3noc(CC4CCCO4)n3)c2)C2(C)CN(C)C2)cc1 (stereo partly drawn) [Example 116]	40.8
CC(C)c1ccc([C@](O)(c2cncc(-c3noc([C@@](C)(O)C(F)(F)F)n3)c2)C2(C)CN(C)C2)cc1 [Example 117]	20.1
